The numbers were not newly measured in paper PMC3462432 (FEBS letters, 2012), which cites them from elsewhere.

Consider cypemycin, for which, in the series with mouse leukemia cells, the “in vitro activity against mouse leukemia cells” value is given as “potent in vitro activity”.

For the substance plantazolicin A, the “activity against B. anthracis” value in the series with B. anthracis was “potent activity”.

As to plantazolicin B, in the series on B. anthracis, the “activity against B. anthracis” value is reported as “devoid of activity”.
